Measurements taken from paper PMC5085761 (International Journal of Molecular Sciences, 2016).

Legend:
[18F]fluciclovine uptake = test system: [18F]fluciclovine uptake; parameters: method as in PMID 21536930; details: cited from earlier work
[1] = test system: alanine-serine-cysteine transporter 2 (ASCT2); parameters: method as in PMID 23647854; details: cited from earlier work
[2] = test system: sodium-coupled neutral amino acid transporter 2 (SNAT2); parameters: method as in PMID 23647854; details: cited from earlier work
[3] = test system: L-type amino acid transporter 1 (LAT1); parameters: method as in PMID 23647854; details: cited from earlier work
LLC-PK1 monolayer model = assay: Inhibition study of [14C]fluciclovine apical-to-basal transport, LLC-PK1 monolayer model; details: 1 mM inhibitor, 10 µM [14C]fluciclovine
Excerpt: Natural and synthetic amino acids were used as inhibitors: MeAIB (2-(methylamino)-isobutyric acid, for system A in the presence of Na^+); Thr (L-threonine, for system ASC in the presence of Na^+); and BCH (2-aminobicyclo[2,2,1]heptane-2-carboxylic acid, for system L in the absence of Na^+).

LLC-PK1 monolayers = assay: Apical-to-basal transport through LLC-PK1 monolayers; type: in vitro ADME, pig
Procedure: The LLC-PK1 cell line was purchased from DS Pharma Biomedical (Osaka, Japan). Cells were maintained in Dulbecco’s modified Eagle’s medium (DMEM; Life Technologies Japan, Tokyo, Japan) supplemented with 10% (v/v) fetal bovine serum (American Type Culture Collection, Manassas, VA, USA) and antibiotics (100 U/mL penicillin and 100 μg/mL streptomycin (Life Technologies Japan)). Cells were cultured at 37 °C under an atmosphere containing 5% CO2 before the start of the experiments.
Cells were seeded at a density of 1.5 × 10^6 cells/0.25 mL on the membrane of cell culture inserts fitting 24-well plates (upper compartment, apical side; Becton Dickinson, Franklin Lakes, NJ, USA). Flat-bottom 24-well tissue culture plates (Becton Dickinson) containing 0.95 mL of culture medium per well were used as the basolateral side (bottom compartment).
LLC-PK1 monolayer formation was monitored by the measurement of TER using an EVOM-2 and Endohm24 (World Precision Instruments, Inc., Sarasota, FL, USA) according to the manufacturer’s protocol. […] [^3H]Mannitol transport was measured as described in Section 4.3 for the validation of tight junction formation because mannitol passes through the cell monolayers via the paracellular route.
Experimental procedures were performed as described previously with minor modifications. After cultivation as described above, the culture media in both compartments were replaced with Na^+ buffer (137 mM NaCl, 2.7 mM KCl, 8 mM Na2HPO4, 1.5 mM KH2PO4, 5.6 mM D-glucose, 0.9 mM CaCl2, and 0.5 mM MgCl2; pH 7.4 at 37 °C), and the cells were preincubated for 10 min at 37 °C under normal air conditions. After the buffer was removed from each compartment, the permeability experiments were started with the addition of 0.25 mL of Na^+ buffer containing radiolabeled tracers (final concentration: 81 nM for [^3H]mannitol and 10 μM for the ^14C-labeled amino acid tracers) in each upper compartment, and 0.95 mL of Na^+ buffer in each bottom compartment. The inserts were placed into new 24-well culture plates containing 0.95 mL/well of Na^+ buffer after 5, 15, 30, 60, and 90 min of incubation. Subsequently, the cells were incubated up to 120 min at 37 °C under normal air conditions.
The apical-to-basal permeability was measured by sampling an aliquot of the buffer from the upper and bottom compartment at the indicated times. To evaluate intracellular accumulation, the cells were lysed in 0.5 mL of 0.1N NaOH at room temperature following rapid washing of the cells with ice-cold Na^+ buffer. The radioactivity of each aliquot was measured with an LSC6000SC (Beckman Coulter, Inc., Brea, CA, USA) or Tri-Carb 2910TR liquid scintillation counter (PerkinElmer) using Ultima Gold (PerkinElmer).

[4] = substrate: N[C@]1(C(=O)O)C[C@@H](F)C1; assay: cells, lysate or membranes named; details: not significant vs control vesicles, pH 7.0

Molecule: Nc1ccc(C(=O)NCC(=O)O)cc1 [p-aminohippurate]
- inhibition of [18F]fluciclovine uptake ([18F]fluciclovine uptake): approximately 5%

Molecule: N[C@]1(C(=O)O)C[C@@H](F)C1 [[^18F]fluciclovine, trans-1-amino-3-[^18F]fluorocyclobutanecarboxylic acid]
- Km [1]: 92 µM
- Km [2]: 222 µM
- Km [3]: 230 µM

Molecule: C[C@@H](O)[C@H](N)C(=O)O [Thr, L-threonine]
- inhibition of [14C]fluciclovine apical-to-basal transport (LLC-PK1 monolayer model; Na+ buffer): significant inhibition

Molecule: CNC(C)(C)C(=O)O [MeAIB, 2-(methylamino)-isobutyric acid]
- inhibition of [14C]fluciclovine apical-to-basal transport (LLC-PK1 monolayer model; Na+ buffer): no significant inhibition

Molecule: NC1(C(=O)O)CC2CCC1C2 (stereo not drawn) [BCH, 2-aminobicyclo[2,2,1]heptane-2-carboxylic acid]
- inhibition of [14C]fluciclovine apical-to-basal transport (LLC-PK1 monolayer model; Na+-free buffer): no significant inhibition

Molecule: OC[C@@H](O)[C@@H](O)[C@H](O)[C@H](O)CO [[^3H]mannitol, D-[1-^3H(N)]mannitol]
- mean percentage of [3H]mannitol permeation (LLC-PK1 monolayers; day 1 after seeding): 19.3%
- mean percentage of [3H]mannitol permeation (LLC-PK1 monolayers; day 4 after seeding): 1.23%
- mean percentage of [3H]mannitol permeation (LLC-PK1 monolayers; day 7 after seeding): 2.29%

B1: human MRP4 (Homo sapiens) (protein)
chain: MLPVYQEVKPNPLQDANLCSRVFFWWLNPLFKIGHKRRLEEDDMYSVLPEDRSQHLGEELQGFWDKEVLRAENDAQKPSLTRAIIKCYWKSYLVLGIFTLIEESAKVIQPIFLGKIINYFENYDPMDSVALNTAYAYATVLTFCTLILAILHHLYFYHVQCAGMRLRVAMCHMIYRKALRLSNMAMGKTTTGQIVNLLSNDVNKFDQVTVFLHFLWAGPLQAIAVTALLWMEIGISCLAGMAVLIILLPLQSCFGKLFSSLRSKTATFTDARIRTMNEVITGIRIIKMYAWEKSFSNLITNLRKKEISKILRSSCLRGMNLASFFSASKIIVFVTFTTYVLLGSVITASRVFVAVTLYGAVRLTVTLFFPSAIERVSEAIVSIRRIQTFLLLDEISQRNRQLPSDGKKMVHVQDFTAFWDKASETPTLQGLSFTVRPGELLAVVGPVGAGKSSLLSAVLGELAPSHGLVSVHGRIAYVSQQPWVFSGTLRSNILFGKKYEKERYEKVIKACALKKDLQLLEDGDLTVIGDRGTTLSGGQKARVNLARAVYQDADIYLLDDPLSAVDAEVSRHLFELCICQILHEKITILVTHQLQYLKAASQILILKDGKMVQKGTYTEFLKSGIDFGSLLKKDNEESEQPPVPGTPTLRNRTFSESSVWSQQSSRPSLKDGALESQDTENVPVTLSEENRSEGKVGFQAYKNYFRAGAHWIVFIFLILLNTAAQVAYVLQDWWLSYWANKQSMLNVTVNGGGNVTEKLDLNWYLGIYSGLTVATVLFGIARSLLVFYVLVNSSQTLHNKMFESILKAPVLFFDRNPIGRILNRFSKDIGHLDDLLPLTFLDFIQTLLQVVGVVSVAVAVIPWIAIPLVPLGIIFIFLRRYFLETSRDVKRLESTTRSPVFSHLSSSLQGLWTIRAYKAEERCQELFDAHQDLHSEAWFLFLTTSRWFAVRLDAICAMFVIIVAFGSLILAKTLDAGQVGLALSYALTLMGMFQWCVRQSAEVENMMISVERVIEYTDLEKEAPWEYQKRPPPAWPHEGVIIFDNVNFMYSPGGPLVLKHLTALIKSQEKVGIVGRTGAGKSSLISALFRLSEPEGKIWIDKILTTEIGLHDLRKKMSIIPQEPVLFTGTMRKNLDPFNEHTDEELWNALQEVQLKETIEDLPGKMDTELAESGSNFSVGQRQLVCLARAILRKNQILIIDEATANVDPRTDELIQKKIREKFAHCTVLTIAHRLNTIIDSDKIMVLDSGRLKEYDEPYVLLQNKESLFYKMVQQLGKAEAAALTETAKQVYFKRNYPHIGHTDHMVTNTSNGQPSTLTIFETAL
- Km ([4]; other: MRP4 vesicles): 15300 ± 44100 µM

B2: human BCRP (Homo sapiens) (protein)
chain: MSSSNVEVFIPVSQGNTNGFPATASNDLKAFTEGAVLSFHNICYRVKLKSGFLPCRKPVEKEILSNINGIMKPGLNAILGPTGGGKSSLLDVLAARKDPSGLSGDVLINGAPRPANFKCNSGYVVQDDVVMGTLTVRENLQFSAALRLATTMTNHEKNERINRVIQELGLDKVADSKVGTQFIRGVSGGERKRTSIGMELITDPSILFLDEPTTGLDSSTANAVLLLLKRMSKQGRTIIFSIHQPRYSIFKLFDSLTLLASGRLMFHGPAQEALGYFESAGYHCEAYNNPADFFLDIINGDSTAVALNREEDFKATEIIEPSKQDKPLIEKLAEIYVNSSFYKETKAELHQLSGGEKKKKITVFKEISYTTSFCHQLRWVSKRSFKNLLGNPQASIAQIIVTVVLGLVIGAIYFGLKNDSTGIQNRAGVLFFLTTNQCFSSVSAVELFVVEKKLFIHEYISGYYRVSSYFLGKLLSDLLPMRMLPSIIFTCIVYFMLGLKPKADAFFVMMFTLMMVAYSASSMALAIAAGQSVVSVATLLMTICFVFMMIFSGLLVNLTTIASWLSWLQYFSIPRYGFTALQHNEFLGQNFCPGLNATGNNPCNYATCTGEEYLVKQGIDLSPWGLWKNHVALACMIVIFLTIAYLKLLFLKKYS
- Km ([4]; other: BCRP vesicles): 1340 ± 1450 µM
